In patent publication EP0400190A1, “New water-soluble derivatives of nabumetone, a process for their preparation and pharmaceutical compositions which contain them” (MAGIS FARMACEUTICI S.p.A., priority 1989, dated 1990):

What was measured:
[1] = tested on: edema induced in the rat by formalin; assay: Anti-inflammatory activity on formalin-induced edema; type: in vivo; details: read-out: ED₅₀
From the text: The anti-inflammatory activity of these enamines was studied in comparison with acetylsalicylic acid on edema induced in the rat by formalin.

mice = assay: Analgesic activity, Writhing test using p-phenylquinone; type: in vivo; details: Mus musculus, po, mice treated orally, read-out: ED₅₀
Method: The analgesic activity was measured by the Writhing test using p-phenylquinone on mice treated orally with the nabumetone enamines in comparison with acetylsalicylic acid, the results showing an ED₅₀ (mg/Kg) for the enamines of about 80 whereas for acetylsalicylic acid the value is about 106.1.

In the case of `CC(=O)Oc1ccccc1C(=O)O` [acetylsalicylic acid], the ED50 [1] is reported as about 313 mg/kg and the ED50 (mice) is reported as about 106 mg/kg.
